Assay results taken from paper PMC8922279, “Identification of β-Lactams Active against Mycobacterium tuberculosis by a Consortium of Pharmaceutical Companies and Academic Institutions” (ACS Infectious Diseases, 2022).

How the values were obtained:
[1] = test system: Mtb H37Rv; assay: MIC90 against replicating (R) Mtb H37Rv, with or without clavulanate; type: cell-based, Mycobacterium tuberculosis; settings: Table S4; for Mtb H37Rv R + CLAV (MIC90): clavulanate 4 μg/mL; for Mtb H37Rv R (MIC90): no clavulanate
[2] = test system: Mtb H37Rv; assay: MIC90 against nonreplicating (NR, 4-stress) Mtb H37Rv, with or without clavulanate; type: cell-based, Mycobacterium tuberculosis; settings: 4-stress nonreplicating, Table S4; for Mtb H37Rv NR + CLAV (MIC90): clavulanate 4 μg/mL; for Mtb H37Rv NR (MIC90): no clavulanate
[3] = test system: E. coli; assay: Microbial spectrum, E. coli; type: cell-based, Escherichia coli; settings: clavulanate 4 μg/mL; Table S4
[4] = test system: P. aeruginosa; assay: Microbial spectrum, P. aeruginosa; type: cell-based, Pseudomonas aeruginosa; settings: clavulanate 4 μg/mL; Table S4
[5] = test system: S. aureus; assay: Microbial spectrum, S. aureus; type: cell-based, Staphylococcus aureus; settings: clavulanate 4 μg/mL; Table S4
[6] = test system: C. albicans; assay: Microbial spectrum, C. albicans; type: cell-based, Candida albicans; settings: no clavulanate; Table S4
[7] = In vitro plasma stability, human plasma; settings: 2 μM, 37 °C, time point 120 min
[8] = In vitro plasma stability, SD rat plasma; settings: 2 μM, 37 °C, time point 120 min
[9] = Stability in simulated gastric fluid (SGF); settings: 10 μM, pH 1.2, room temperature
[10] = In vitro plasma stability, CD-1 mouse plasma; settings: 2 μM, 37 °C, time point 120 min
[11] = In vitro plasma stability, beagle dog plasma; settings: 2 μM, 37 °C, time point 120 min
[12] = In vitro plasma stability, cynomolgus monkey plasma; settings: 2 μM, 37 °C, time point 120 min
[13] = Stability in fasted simulated intestinal fluid (FaSSIF); settings: 10 μM, pH 6.5, room temperature

| SMILES | Mtb H37Rv R + CLAV (MIC90) [1] [µM] | Mtb H37Rv R (MIC90) [1] [µM] | Mtb H37Rv NR + CLAV (MIC90) [2] [µM] | Mtb H37Rv NR (MIC90) [2] [µM] | E.coli R + CLAV (MIC90) [3] [µM] | P.aeruginosa R + CLAV (MIC90) [4] [µM] | S.aureus R + CLAV (MIC90) [5] [µM] | C.albicans R (MIC90) [6] [µM] | Plasma stability % Remaining, Human [7] [%] | Plasma stability % Remaining, Rat [8] [%] | SGF Stability, % remaining, 1h ([9]; 1 h) [%] | SGF Stability, % remaining, 24h ([9]; 24 h) [%] | Plasma stability % Remaining, Mouse [10] [%] | Plasma stability % Remaining, Dog [11] [%] | Plasma stability % Remaining, Monkey [12] [%] | FaSSIF Stability, % remaining, 6h ([13]; 6 h) [%] | FaSSIF Stability, % remaining, 24h ([13]; 24 h) [%] |
| --- | --- | --- | --- | --- | --- | --- | --- | --- | --- | --- | --- | --- | --- | --- | --- | --- | --- |
| O=C(Cn1cnnn1)N[C@@H]1C(=O)N2C(C(=O)O)=C(CSc3cccc[n+]3[O-])CS[C@H]12 [TBBL-0000002] | 5.8 | 5.7 | 3 | 4.4 | 15.3 | > 100 | 3.7 | > 100 |  |  |  |  |  |  |  |  |  |
| O=C(CSc1cccc[n+]1[O-])N[C@@H]1C(=O)N2C(C(=O)O)=C(CSc3cccc[n+]3[O-])CS[C@H]12 [TBBL-0000003] | 3.8 | 4.8 | 3.5 | 3.2 | 44.1 | > 100 | 4.3 | > 100 |  |  |  |  |  |  |  |  |  |
| CC(=O)OC(C(=O)N[C@@H]1C(=O)N2C(C(=O)O)=C(CSc3cccc[n+]3[O-])CS[C@H]12)c1ccccc1 (stereo partly drawn) [TBBL-0000007] | 2.8 | 2.3 | 2.5 | 2.3 | 85.1 | > 100 | 2.4 | > 100 |  |  |  |  |  |  |  |  |  |
| CC(=O)OCC1=C(C(=O)O)N2C(=O)[C@@H](NC(=O)CSc3nc4ccccc4s3)[C@H]2SC1 [TBBL-0000010] | 3.9 | 62 | > 100 | > 100 | > 100 | > 100 | 0.2 | > 100 |  |  |  |  |  |  |  |  |  |
| O=C(Cc1csc(=O)s1)N[C@@H]1C(=O)N2C(C(=O)O)=C(CSc3nnnn3CCO)CS[C@H]12 [TBBL-0000305] | 2.1 | 40.7 | > 100 | > 100 | 7.5 | > 100 | > 100 | > 100 |  |  |  |  |  |  |  |  |  |
| NCCSC=CC1=C(C(=O)O)N2C(=O)C(NC(=O)CSc3ccc(Cl)c(Cl)c3)C2SC1 (stereo not drawn) [TBBL-0000306] | 0.3 | 14.4 | > 100 | > 100 | > 100 | > 100 | > 100 | > 100 | 9.5 | 23.0 | 110.19 | 92.52 | 33.8 | 16.6 | 2.0 | 102.19 | 98.38 |
| CCCn1nnnc1SCC1=C(C(=O)O)N2C(=O)[C@@H](NC(=O)Cc3ccc(C4=NCCN4)cc3)[C@H]2SC1 [TBBL-0000311] | 0.8 | 14.1 | > 100 | > 100 | > 100 | > 100 | 0.9 | > 100 |  |  |  |  |  |  |  |  |  |
| C=CCn1nnnc1SCC1=C(C(=O)O)N2C(=O)[C@@H](NC(=O)Cc3ccc(C4=NCCN4)cc3)[C@H]2SC1 [TBBL-0000312] | 0.8 | 22.1 | > 100 | > 100 | > 100 | > 100 | 1.1 | > 100 |  |  |  |  |  |  |  |  |  |
| CCn1nnnc1SCC1=C(C(=O)O)N2C(=O)[C@@H](NC(=O)Cc3ccc(C4=NCCN4)cc3)[C@H]2SC1 [TBBL-0000313] | 0.6 | 17.3 | > 100 | > 100 | 11.6 | > 100 | 0.8 | > 100 |  |  |  |  |  |  |  |  |  |
| CCn1nnnc1SCC1=C(C(=O)O)N2C(=O)[C@@H](NC(=O)Cc3ccc(C4=NCCCN4)cc3)[C@H]2SC1 [TBBL-0000318] | 0.8 | 24.5 | > 100 | > 100 | 60.5 | > 100 | 2 | > 100 |  |  |  |  |  |  |  |  |  |
| Cn1nnnc1SCC1=C(C(=O)O)N2C(=O)[C@@H](NC(=O)Cc3ccc(C4=NCCN4)cc3)[C@H]2SC1 [TBBL-0000323] | 0.8 | 31.9 | > 100 | > 100 | 14 | > 100 | 1.8 | > 100 |  |  |  |  |  |  |  |  |  |
| CC(O)Cn1nnnc1SCC1=C(C(=O)O)N2C(=O)[C@@H](NC(=O)Cc3csc(=O)s3)[C@H]2SC1 (stereo partly drawn) [TBBL-0000325] | 1.4 | 53.2 | > 100 | > 100 | 3.8 | > 100 | 0.6 | > 100 |  |  |  |  |  |  |  |  |  |
| CC1=C(C(=O)O)N2C(=O)[C@@H](NC(=O)CSc3ccc(C(=N)N)cc3)[C@H]2SC1 [TBBL-0000328] | 1.4 | 64.1 | > 100 | > 100 | > 100 | > 100 | 12.9 | > 100 |  |  |  |  |  |  |  |  |  |
| Cc1nnc(SCC2=C(C(=O)O)N3C(=O)[C@@H](NC(=O)Cc4sc(=O)sc4C)[C@H]3SC2)s1 [TBBL-0000330] | 2.8 | 27.6 | > 100 | > 100 | > 100 | > 100 | > 100 | > 100 |  |  |  |  |  |  |  |  |  |
| Cc1nnc(SCC2=C(C(=O)O)N3C(=O)[C@@H](NC(=O)CSc4cc(Cl)ccc4Cl)[C@H]3SC2)s1 [TBBL-0000415] | 1.6 | 22.9 | > 100 | > 100 | 22.7 | > 100 | < 0.1 | > 100 |  |  |  |  |  |  |  |  |  |
| CCc1cc[n+](CC2=C(C(=O)[O-])N3C(=O)[C@@H](NC(=O)Cc4cccs4)[C@H]3SC2)cc1 [TBBL-0000418] | 1.4 | 100 | > 100 | > 100 | 7 | > 100 | 0.5 | > 100 |  |  |  |  |  |  |  |  |  |
| N=C(N)SCc1ccccc1SC1=C(C(=O)O)N2C(=O)[C@@H](NC(=O)C(N)c3ccccc3)[C@H]2CC1 (stereo partly drawn) [TBBL-0000435] | 1.1 | 90.2 | > 100 | > 100 | > 100 | > 100 | 0.8 | > 100 |  |  |  |  |  |  |  |  |  |
| Cn1nnnc1SCC1=C(C(=O)O)N2C(=O)[C@@H](NC(=O)CSc3cc(Cl)ccc3Cl)[C@H]2SC1 [TBBL-0000446] | 1.5 | 20.7 | > 100 | > 100 | 13.3 | > 100 | < 0.1 | > 100 |  |  |  |  |  |  |  |  |  |
| O=C(Cc1cccs1)N[C@@H]1C(=O)N2C(C(=O)O)=C(C[n+]3ccccn3)CS[C@H]12 [TBBL-0000466] | 1.8 | 39 | > 100 | > 100 | 35.1 | > 100 | 0.5 | > 100 |  |  |  |  |  |  |  |  |  |
| Nc1nnc(SCC2=C(C(=O)O)N3C(=O)[C@@H](NC(=O)CSc4cc(Cl)ccc4Cl)[C@H]3SC2)s1 [TBBL-0000467] | 1.5 | 52.2 | > 100 | > 100 | > 100 | > 100 | < 0.1 | > 100 |  |  |  |  |  |  |  |  |  |
| O=C(Cc1cccs1)N[C@@H]1C(=O)N2C(C(=O)[O-])=C(C[n+]3ccccc3)CS[C@H]12 [TBBL-0000493] | 2.2 | 50 | > 100 | > 100 | 37.9 | > 100 | 0.8 | > 100 |  |  |  |  |  |  |  |  |  |
